# Molecular target: PI3Kβ (Homo sapiens (Human), UniProt P42338)
# Experiment: PI3K isoform TR-FRET enzymatic assay (PI3Kβ)
# Assay type: biochemical
# Conditions: 2× Km ATP, 30 minutes at 25° C.
# In short: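 IC50 came from four-parameter dose-response fits, normalized between DMSO and 1 μM wortmannin controls. The read-out was TR-FRET (615/665 nm) of PIP3 displacing fluorescent PIP3 from Europium GRP-1 after 10 mM EDTA termination. Compounds were incubated with purified heterodimeric PI3Kβ for 30 min at 25° C.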
# Sequence of PI3Kβ (P42338 whole entry, canonical isoform): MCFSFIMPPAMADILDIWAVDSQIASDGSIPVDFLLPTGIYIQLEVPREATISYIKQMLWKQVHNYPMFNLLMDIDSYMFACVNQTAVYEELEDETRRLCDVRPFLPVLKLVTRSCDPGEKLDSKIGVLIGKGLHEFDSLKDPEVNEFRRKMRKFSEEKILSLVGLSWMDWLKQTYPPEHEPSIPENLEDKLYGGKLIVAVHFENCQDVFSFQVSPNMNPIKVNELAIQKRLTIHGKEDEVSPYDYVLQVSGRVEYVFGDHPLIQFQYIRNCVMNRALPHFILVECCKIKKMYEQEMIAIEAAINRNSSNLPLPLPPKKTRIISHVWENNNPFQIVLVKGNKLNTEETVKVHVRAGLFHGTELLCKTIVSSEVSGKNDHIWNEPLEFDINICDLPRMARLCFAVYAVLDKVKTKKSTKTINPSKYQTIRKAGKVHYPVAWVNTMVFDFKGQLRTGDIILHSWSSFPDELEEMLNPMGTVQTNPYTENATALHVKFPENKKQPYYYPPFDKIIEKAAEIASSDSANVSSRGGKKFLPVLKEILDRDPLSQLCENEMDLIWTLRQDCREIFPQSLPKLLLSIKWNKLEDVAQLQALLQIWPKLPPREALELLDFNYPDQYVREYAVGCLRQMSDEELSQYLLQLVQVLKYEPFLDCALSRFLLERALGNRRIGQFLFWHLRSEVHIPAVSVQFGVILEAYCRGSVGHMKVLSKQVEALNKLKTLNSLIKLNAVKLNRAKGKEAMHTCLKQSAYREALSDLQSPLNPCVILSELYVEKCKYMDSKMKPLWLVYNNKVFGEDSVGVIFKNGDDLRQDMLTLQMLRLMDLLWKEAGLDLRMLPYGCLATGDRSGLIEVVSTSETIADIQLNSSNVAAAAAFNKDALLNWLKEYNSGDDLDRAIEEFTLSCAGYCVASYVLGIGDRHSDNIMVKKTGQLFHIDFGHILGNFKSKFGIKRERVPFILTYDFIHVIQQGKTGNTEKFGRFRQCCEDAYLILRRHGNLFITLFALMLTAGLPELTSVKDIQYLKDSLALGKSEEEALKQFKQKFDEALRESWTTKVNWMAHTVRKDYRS
# Sequence of PI3Kβ (P27986 whole entry partner, canonical isoform): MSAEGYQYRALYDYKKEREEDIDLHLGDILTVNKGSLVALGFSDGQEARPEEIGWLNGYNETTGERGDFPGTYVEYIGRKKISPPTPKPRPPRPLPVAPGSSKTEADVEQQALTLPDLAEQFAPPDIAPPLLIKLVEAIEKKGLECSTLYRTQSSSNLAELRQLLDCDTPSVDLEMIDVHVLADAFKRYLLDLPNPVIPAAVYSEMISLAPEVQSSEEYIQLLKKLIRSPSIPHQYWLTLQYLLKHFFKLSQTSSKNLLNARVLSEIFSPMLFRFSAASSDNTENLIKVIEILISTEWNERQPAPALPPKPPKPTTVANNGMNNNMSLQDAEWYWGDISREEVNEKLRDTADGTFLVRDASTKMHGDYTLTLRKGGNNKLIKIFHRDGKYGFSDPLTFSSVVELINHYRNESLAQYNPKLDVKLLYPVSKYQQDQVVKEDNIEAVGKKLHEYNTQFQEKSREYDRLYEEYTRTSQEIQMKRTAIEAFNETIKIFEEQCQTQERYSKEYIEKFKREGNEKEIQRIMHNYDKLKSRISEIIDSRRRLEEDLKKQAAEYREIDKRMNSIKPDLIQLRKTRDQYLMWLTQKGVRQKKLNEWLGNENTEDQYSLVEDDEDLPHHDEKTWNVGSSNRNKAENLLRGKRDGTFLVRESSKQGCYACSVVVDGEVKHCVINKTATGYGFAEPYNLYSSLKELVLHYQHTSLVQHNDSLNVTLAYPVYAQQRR
row,SMILES,IC50
1,"Cc1nc2c(-c3cnc(Cl)[nH]3)cc(N3CCOCC3)cc2n1-c1ccnc2c(Cl)ccc(F)c12 [Example 288, 4-[3-(8-chloro-5-fluoroquinolin-4-yl)-7-(2-chloro-1H-imidazol-5-yl)-2-methylbenzimidazol-5-yl]morpholine]",0.005 µM
2,"Clc1cccc2c(-n3cnc4c(-c5nnc[nH]5)cc(N5CCOCC5)cc43)ccnc12 [Example 111, 4-[3-(8-chloroquinolin-4-yl)-7-(4H-1,2,4-triazol-3-yl)benzimidazol-5-yl]morpholine]",0.003 µM
3,"Cc1cc(-n2c(C)nc3c(-c4cnc(Cl)[nH]4)cc(N4CCOCC4)cc32)c2cccc(F)c2n1 [Example 282, 4-[7-(2-chloro-1H-imidazol-5-yl)-3-(8-fluoro-2-methylquinolin-4-yl)-2-methylbenzimidazol-5-yl]morpholine]",0.025 µM
4,"Cc1nc2c(-c3cnc[nH]3)cc(N3CCOCC3)cc2n1-c1ccnc2c(F)ccc(F)c12 [Example 335, 4-[3-(5,8-difluoroquinolin-4-yl)-7-(1H-imidazol-5-yl)-2-methylbenzimidazol-5-yl]morpholine]",0.015 µM
5,"Clc1cccc2c(-n3c(C4COC4)nc4c(-c5nnc[nH]5)cc(N5CCOCC5)cc43)ccnc12 [Example 113, 4-[3-(8-chloroquinolin-4-yl)-2-(oxetan-3-yl)-7-(4H-1,2,4-triazol-3-yl)benzimidazol-5-yl]morpholine]",0.017 µM
6,"c1ccc2c(-n3c(C4CC4)nc4c(-c5nnc[nH]5)cc(N5CCOCC5)cc43)ccnc2c1 [Example 17, 4-(2-cyclopropyl-1-(quinolin-4-yl)-4-(4H-1,2,4-triazol-3-yl)-1H-benzo[d]imidazol-6-yl)morpholine]",0.06 µM
7,"Cc1nc2c(-c3cnc(Cl)[nH]3)cc(N3CCOCC3)cc2n1-c1ccnc2c(F)ccc(F)c12 (atropisomer, axis not shown) [Compound 372, 4-(4-(2-chloro-1H-imidazol-5-yl)-1-(5,8-difluoroquinolin-4-yl)-2-methyl-1H-benzo[d]imidazol-6-yl)morpholine]",0.006 µM
8,"CCc1nc2c(-c3ncc[nH]3)cc(N3CCOCC3)cc2n1-c1ccnc2c(F)ccc(F)c12 (atropisomer, axis not shown) [Compound 370, 4-(1-(5,8-difluoroquinolin-4-yl)-2-ethyl-4-(1H-imidazol-2-yl)-1H-benzo[d]imidazol-6-yl)morpholine]",0.013 µM
9,"Cc1cc(-n2c(C)nc3c(-c4nnc[nH]4)cc(N4CCOCC4)cc32)c2ccc(F)cc2n1 [Example 63, 4-[3-(7-fluoro-2-methylquinolin-4-yl)-2-methyl-7-(4H-1,2,4-triazol-3-yl)benzimidazol-5-yl]morpholine]",0.028 µM
10,"c1ccc(-c2nc3c(-c4nnc[nH]4)cc(N4CCOCC4)cc3n2-c2ccnc3ccccc23)nc1 [Example 6, 4-(2-(pyridin-2-yl)-1-(quinolin-4-yl)-4-(4H-1,2,4-triazol-3-yl)-1H-benzo[d]imidazol-6-yl)morpholine]",0.031 µM
11,"Cc1nnc(-c2cc(N3CCOCC3)cc3c2nc(C)n3-c2ccnc3c(F)ccc(F)c23)[nH]1 [Example 51, 4-(1-(5,8-difluoroquinolin-4-yl)-2-methyl-4-(5-methyl-4H-1,2,4-triazol-3-yl)-1H-benzo[d]imidazol-6-yl)morpholine]",0.015 µM
12,"COC(C)c1nc2c(-c3nnc[nH]3)cc(N3CCOCC3)cc2n1-c1ccnc2c(Cl)cccc12 (stereo not shown) [Example 12, 4-(1-(8-chloroquinolin-4-yl)-2-(1-methoxyethyl)-4-(4H-1,2,4-triazol-3-yl)-1H-benzo[d]imidazol-6-yl)morpholine]",0.043 µM
13,"Cc1nnc(-c2cc(N3CCOCC3)cc3c2nc(C)n3-c2c(Cl)cnc3c(Cl)cccc23)[nH]1 [Example 157, 4-(1-(3,8-dichloroquinolin-4-yl)-2-methyl-4-(5-methyl-4H-1,2,4-triazol-3-yl)-1H-benzo[d]imidazol-6-yl)morpholine]",0.047 µM
